Source: article PMC7059030, “Design, Synthesis, Molecular Modeling Studies and Biological Evaluation of N′-Arylidene-6-(benzyloxy)-4-oxo-1,4-dihydroquinoline-3-carbohydrazide Derivatives as Novel Anti-HCV Agents” (Iranian Journal of Pharmaceutical Research : IJPR, 2019)
Where two headings read alike, the source gives them in different places.

Assays:
[1] = test system: HCV (JFH-1 strain) in Huh7.5 cells; assay: Cell-based HCV replicon assay (RT-qPCR of HCV RNA in infected Huh7.5 cells); design: species or system hepatitis C virus; conditions: for EC50: Huh7.5 cells infected with HCV (JFH-1), three days, HCV RNA by quantitative RT-PCR; for SI = CC50/EC50: selectivity index, CC50 (Huh-7.5, XTT) / EC50 (HCV replicon)
Description: The plasmid encoding the full genome of […] (JFH-1) strain (kindly provided by Wakita T) was used for in-vitro transcription to produce approximately high titer stocks of cell culture-produced virus (HCVcc) as previously described ([37]).
Huh7.5 cells were seeded into 48-well plates at a density of 3×10^5 cells per well with DMEM containing 10% FBS. After 24 h, huh7.5 cells were infected with HCV viral stock ([…]) for 3 h, at which point the infection was stopped and each well was washed three times by sterile PBS to removed non-penetrated virions and then the fresh medium was added to each well. Subsequently, the infected cells were treated with newly synthesized compounds at different concentrations and the sofosbuvir (Sigma-Aldrich, USA) as a positive control. After three days inoculation, the supernatant medium was collected and the viral RNA was extracted using viral QIAamp viral RNA mini kit (Qiagen, Düsseldorf, Germany), according to the manufacturer protocol. Then, the amount of HCV replicon RNA was determined using Quantitative RT-PCR assay by hepatitis C virus viral load kit (Gene Proof, Czech Republic, with CE, IVD) according to the manufacturer’s instruction.
The 50% effective concentration (EC50) was determined as the ratio of the normalized HCV RNA amount in treated samples relative to the controls (the samples without compound treatment) using GraphPad Prism5.0 software (GraphPad Software, San Diego, CA).
Target compounds 13-25 were evaluated in a cell-based viral replication surrogate assay known as the replicon system ([39]). We hypothesized that our quinolone analogues will inhibit NS5B, likely via binding to the active site. To test this hypothesis, FDA-approved active site binding NI, sofosbuvir, was used as a control compound. In parallel, compounds were also evaluated for their cytotoxic effects in the same cell line to ensure that the activity is completely devoid of cytotoxicity effects. The biological results are expressed as EC50, CC50 and SI (selectivity index, given by the CC50/EC50 ratio).

[2] = XTT cytotoxicity assay; format: cell-based; conditions: human, Huh-7.5 cells
Description: The cytotoxicity of compounds to Huh-7.5 cells was measured in parallel with the HCV replication assay based on the cleavage of the yellow tetrazolium salt XTT® (sodium 3-[1 (phenylaminocarbonyl)-3, 4-tetrazolium]-bis(4-methoxy-6-nitro)benzene sulfonic acid) to generate an orange formazan dye by metabolic function of alive and active cells. Cells were treated with various concentrations ([…]) of compounds and incubated for 72 hours.
The cell cytotoxicity was determined using XTT proliferation assay kit (Sigma-Aldrich) following the manufacturer’s instructions. The 50% cytotoxic concentration (CC50) was defined as the concentration of compound that reduced cell proliferation by 50%.

[3] = Hepatitis C virus, Huh7.5, 72 h, read-out: EC50
[4] = Hepatitis C virus, Huh7.5, 72 h

| SMILES | EC50 [1, 3] | CC50 at 72 h [2] | melting point | EC50 [1, 4] | EC50 [1] | SI = CC50/EC50 [1] |
| --- | --- | --- | --- | --- | --- | --- |
| O=C(NN=Cc1ccccc1)c1c[nH]c2ccc(OCc3ccccc3)cc2c1=O [Compound 13, N′-Benzylidene-6-(benzyloxy)-4-oxo-1,4-dihydroquinoline-3-carbohydrazide] | > 200 µM | > 200 µM | 130 °C (dec.) |  |  |  |
| O=C(NN=Cc1ccccc1F)c1c[nH]c2ccc(OCc3ccccc3)cc2c1=O [Compound 20, 6-(Benzyloxy)-N′-(2-fluorobenzylidene)-4-oxo-1,4-dihydroquinoline-3-carbohydrazide] |  | > 200 µM | 324 °C (dec.) | 70 µM | 120 µM | > 2 |
| Cc1ccc(C=NNC(=O)c2c[nH]c3ccc(OCc4ccccc4)cc3c2=O)cc1 [Compound 17, 6-(Benzyloxy)-N′-(4-methylbenzylidene)-4-oxo-1,4-dihydroquinoline-3-carbohydrazide] |  | > 200 µM | 330 °C (dec.) | > 200 µM |  |  |
| CC(C)OC(=O)[C@H](C)N[P@](=O)(OC[C@H]1O[C@@H](n2ccc(=O)[nH]c2=O)[C@](C)(F)[C@@H]1O)Oc1ccccc1 [Sofosbuvir, sofosbuvir, reference compound] | 5 µM | > 500 µM |  |  |  | > 100 |
| Cc1ccccc1C=NNC(=O)c1c[nH]c2ccc(OCc3ccccc3)cc2c1=O [Compound 23, 6-(Benzyloxy)-N′-(2-methylbenzylidene)-4-oxo-1,4-dihydroquinoline-3-carbohydrazide] | 70 µM | 160 µM | 290 °C (dec.) |  |  | 2.2 |
| O=C(NN=Cc1cccc(F)c1)c1c[nH]c2ccc(OCc3ccccc3)cc2c1=O [Compound 19, 6-(Benzyloxy)-N′-(3-fluorobenzylidene)-4-oxo-1,4-dihydroquinoline-3-carbohydrazide] | > 200 µM | > 200 µM | 305 °C (dec.) |  |  |  |
| COc1ccccc1C=NNC(=O)c1c[nH]c2ccc(OCc3ccccc3)cc2c1=O [Compound 25, 6-(Benzyloxy)-N′-(2-methoxybenzylidene)-4-oxo-1,4-dihydroquinoline-3-carbohydrazide] | > 200 µM | > 200 µM | 299 °C (dec.) |  |  |  |
| O=C(NN=Cc1ccc(F)cc1)c1c[nH]c2ccc(OCc3ccccc3)cc2c1=O [Compound 15, 6-(Benzyloxy)-N′-(4-fluorobenzylidene)-4-oxo-1,4-dihydroquinoline-3-carbohydrazide] | > 200 µM | > 200 µM | 305 °C (dec.) |  |  |  |
| COc1ccc(C=NNC(=O)c2c[nH]c3ccc(OCc4ccccc4)cc3c2=O)cc1 [Compound 18, 6-(Benzyloxy)-N′-(4-methoxybenzylidene)-4-oxo-1,4-dihydroquinoline-3-carbohydrazide] |  | > 200 µM | 154 °C (dec.) |  |  | > 2 |
| O=C(NN=Cc1ccc(Cl)cc1)c1c[nH]c2ccc(OCc3ccccc3)cc2c1=O [Compound 16, 6-(Benzyloxy)-N′-(4-chlorobenzylidene)-4-oxo-1,4-dihydroquinoline-3-carbohydrazide] | > 200 µM | > 200 µM | 329 °C (dec.) |  |  |  |
| O=C(NN=Cc1cccc(Cl)c1)c1c[nH]c2ccc(OCc3ccccc3)cc2c1=O [Compound 21, 6-(Benzyloxy)-N′-(3-chlorobenzylidene)-4-oxo-1,4-dihydroquinoline-3-carbohydrazide] | 35 µM | 90 µM | 291 °C (dec.) |  |  | 2.5 |
| CSc1ccc(C=NNC(=O)c2c[nH]c3ccc(OCc4ccccc4)cc3c2=O)cc1 [Compound 14, 6-(Benzyloxy)-N′-(4-(methylthio)benzylidene)-4-oxo-1,4-dihydroquinoline-3-carbohydrazide] |  | > 200 µM | 160 °C (dec.) | > 200 µM |  |  |
| Cc1cccc(C=NNC(=O)c2c[nH]c3ccc(OCc4ccccc4)cc3c2=O)c1 [Compound 22, 6-(Benzyloxy)-N′-(3-methylbenzylidene)-4-oxo-1,4-dihydroquinoline-3-carbohydrazide] | 45 µM | 100 µM | 310 °C (dec.) |  |  | 2.2 |
| COc1cccc(C=NNC(=O)c2c[nH]c3ccc(OCc4ccccc4)cc3c2=O)c1 [Compound 24, 6-(Benzyloxy)-N′-(3-methoxybenzylidene)-4-oxo-1,4-dihydroquinoline-3-carbohydrazide] | 120 µM | > 200 µM | 280 °C (dec.) |  |  | >1.8 |
